Data as given in article PMC2362811, “In vivo efficacy of XR9051, a potent modulator of P-glycoprotein mediated multidrug resistance” (British Journal of Cancer, 1999).
Read-outs that look alike come from different tables or passages of the source.

Columns and labels:
[1] = test system: P388/P-sensitive murine leukaemia; experiment: In vivo efficacy, P388/P sensitive murine leukaemia model (survival); parameters: species or system mouse; settings: for lifespan of tumour-bearing animals vs vehicle alone: vincristine 0.1 mg kg-1 i.p. days 1-5 or doxorubicin 2 mg kg-1 i.p. days 1, 4 and 7, P < 0.005
[2] = test system: P388/DX Johnson murine leukaemia; settings: for survival, cytotoxic drug in the absence of XR9051: P388/DX Johnson-resistant leukaemia-bearing mice, cytotoxic drug alone; for survival of resistant leukaemia-bearing mice, combination vs cytotoxic drug alone: days 1-5, P < 0.01
P388/DX Johnson cells = settings: the cell line used in our studies
[3] = test system: P388 cells transfected with the human MDR1 gene; settings: ref Yang et al, 1994; cited from earlier work
[4] = Pharmacokinetics of XR9051 after single i.v. dose in Balb/c mice (plasma, liver, heart, brain; HPLC); assay type: in vivo, mouse; settings: for half-life: two-compartment model
in vivo = assay type: in vivo; parameters: maximum concentration in tumour tissue / maximum concentration in tumour tissue (molar) / concentrations in H69/LX4 MDR tumours over a 25 h period: unit not given here
[5] = Plasma levels of XR9051 after single oral dose in Balb/c mice; assay type: in vivo; settings: mouse
[6] = test system: MC26 murine colon carcinoma; assay type: in vivo
MC26 cells = experiment: In vitro sensitization of MC26 cells to doxorubicin; assay type: cell-based, mouse; settings: 500 nM XR9051, in vitro (unpublished data)
[7] = test system: 2780AD ovarian carcinoma xenografts; assay type: in vivo
[8] = test system: CH1/DOXr ovarian carcinoma xenografts; assay type: in vivo; settings: for tumour growth rate compared with either drug alone: P < 0.01
[9] = test system: H69/LX small cell lung carcinoma xenografts; assay type: in vivo
[10] = test system: murine and human P-gp-expressing cell lines; parameters: method as in Dale et al, 1998; settings: co-exposure, several murine and human P-gp-expressing cell lines; ref Dale et al, 1998; cited from earlier work
[11] = single i.v. 20 mg kg-1, H69/LX4 SCLC xenograft-bearing athymic mice

Compound: CC[C@]1(O)C[C@H]2CN(CCc3c([nH]c4ccccc34)[C@@](C(=O)OC)(c3cc4c(cc3OC)N(C=O)[C@H]3[C@@](O)(C(=O)OC)[C@H](OC(C)=O)[C@]5(CC)C=CCN6CC[C@]43[C@@H]65)C2)C1 [vincristine, reference compound]
- lifespan of tumour-bearing animals vs vehicle alone [1]: increased the lifespan
- survival, cytotoxic drug in the absence of XR9051 [2]: little or no effect on survival
- resistance factor of cell line to vincristine (P388/DX Johnson cells): 70 fold
- resistance factor of cell line to vincristine [3]: 22 fold

Compound: COc1cc2c(cc1OC)CN(CCc1ccc(NC(=O)c3cccc(/C=c4\[nH]c(=O)/c(=C/c5ccccc5)n(C)c4=O)c3)cc1)CC2 [XR9051, N-(4-(2-(6,7-dimethoxy-1,2,3,4-tetrahydro-2-isoquinolyl)ethyl)phenyl)-3-((3Z,6Z)-6-benzylidene-1-methyl-2,5-dioxo-3-piperazinylidene)methylbenzamide]
- linearity of intravenous pharmacokinetic parameters ([4]; i.v., between 20 and 100 mg kg-1 doses (data not shown)): linear
- Vd ([4]; mouse, in vivo, iv, single i.v. 20 mg kg-1, Balb/c mice, read-out: steady-state volume of distribution): 9.6 L/kg
- Kp ([4]; mouse, iv, single i.v. 20 mg kg-1, Balb/c mice, brain, read-out: ratio between AUC for tissue:plasma, brain): 0.3
- Kp ([4]; mouse, iv, single i.v. 20 mg kg-1, Balb/c mice, heart, read-out: ratio between AUC for tissue:plasma, heart): 16.9
- Kp ([4]; mouse, iv, single i.v. 20 mg kg-1, Balb/c mice, liver, read-out: ratio between AUC for tissue:plasma, liver): 79.6
- AUC ([4]; mouse, iv, single i.v. 20 mg kg-1, Balb/c mice, plasma, read-out: AUC from time 0- for plasma): 11900 ng·h/mL
- half-life ([4]; mouse, iv, single i.v. 20 mg kg-1, Balb/c mice, brain, read-out: apparent elimination half-life in brain (converted)): 69 min
- half-life ([4]; mouse, iv, single i.v. 20 mg kg-1, Balb/c mice, heart, read-out: apparent elimination half-life in heart (converted)): 120 min
- half-life ([4]; mouse, iv, single i.v. 20 mg kg-1, Balb/c mice, liver, read-out: apparent elimination half-life in liver (converted)): 296 min
- half-life ([4]; mouse, iv, single i.v. 20 mg kg-1, Balb/c mice, plasma, read-out: apparent elimination half-life in plasma (converted)): 238 min
- AUC (in vivo; athymic, mouse, tumour (H69/LX4 SCLC xenograft), iv, single i.v. 20 mg kg-1, H69/LX4 tumour, read-out: AUC0- in tumour tissue): 57100 ng·h/mL
- half-life (in vivo; athymic, mouse, tumour (H69/LX4 SCLC xenograft), iv, single i.v. 20 mg kg-1, H69/LX4 tumour, read-out: apparent elimination half-life in tumour tissue (converted)): 527 min
- Tmax (in vivo; athymic, mouse, tumour (H69/LX4 SCLC xenograft), iv, single i.v. 20 mg kg-1, H69/LX4 tumour, read-out: time of maximum concentration in tumour tissue): 1.5 h
- concentrations in H69/LX4 MDR tumours over a 25 h period (in vivo; single i.v. 20 mg kg-1, 25 h period): 0.6-9.4
- maximum concentration in tumour tissue (in vivo; [11]): 6.94
- maximum concentration in tumour tissue (molar) (in vivo; [11]): 9.4
- bioavailability ([5]; Balb/c, oral, p.o. 50 mg kg-1 vs i.v., mice): ~46%
- Tmax ([5]; po, p.o. 50 mg kg-1, Balb/c mice): ~3.4 h
- AUC(0-t) ([5]; po, p.o. 50 mg kg-1, Balb/c mice, read-out: AUC0-24 h): 13500 ng·h/mL
- Cmax ([5]; po, p.o. 50 mg kg-1, Balb/c mice, read-out: Cmax in plasma): 1300 ng/mL
- Cmax ([5]; po, p.o. 50 mg kg-1, Balb/c mice, read-out: Cmax in plasma (molar)): 1800 nM
- survival time ([1]; P388/P-sensitive cells implanted i.p.): 12 days
- lifespan of sensitive tumour-bearing animals, co-administration with cytotoxic drug ([1]; XR9051 20 or 40 mg kg-1 i.v. with vincristine or doxorubicin): did not further increase the lifespan
- tumour growth inhibition, XR9051 alone ([6]; XR9051 alone, pilot experiments): no significant inhibitory activity
- tumour growth on day 14 compared to cytotoxic drug alone ([6]; XR9051 i.p. 20 mg kg-1 at 0 and 4 h with doxorubicin 5 mg kg i.v. at 1 h): significant (P < 0.001) inhibition of tumour growth
- body weight gain between the various groups ([6]; XR9051 i.p. or p.o. with doxorubicin): no differences in body weight gain
- tumour growth on day 14 compared to cytotoxic drug alone ([6]; XR9051 p.o. 40 mg kg-1 at 0 and 4 h with doxorubicin 5 mg kg i.v. at 1 h): significant (P < 0.001) inhibition of tumour growth
- enhancement of sensitivity of MC26 cells to doxorubicin (MC26 cells): three-fold
- extent of reversal of resistance ([7]; XR9051 40 mg kg-1 with epirubicin, compared with sensitive 2780 tumours (Plumb et al, 1994)): full reversal of resistance
- tumour growth rate compared with either drug alone ([7]; XR9051 i.p. 20-40 mg kg-1 2 h before and after epirubicin 10 mg kg-1 i.v., P < 0.01, dose related): significantly reduced growth rate
- tumour growth rate compared with either drug alone ([8]; XR9051 10 mg kg-1 i.v. with Paclitaxel 20 mg kg-1 i.p., days 0, 2 and 4): significantly reduced tumour growth rate
- tumour growth rate compared with either drug alone ([8]; XR9051 20 mg kg-1 i.v. with etoposide 30 mg kg-1 i.p., days 0, 5 and 11): significantly reduced tumour growth rate
- tolerability of combination schedules as judged by changes in body weights ([8]; XR9051 i.v. with Paclitaxel or etoposide (data not shown)): well-tolerated
- potentiation of anti-tumour activity of doxorubicin ([9]; XR9051 40 mg kg-1 i.p. or p.o. with doxorubicin (2 mg kg-1), P < 0.01): significantly potentiated the anti-tumour activity
- potentiation of anti-tumour activity of vincristine ([9]; XR9051 40 mg kg-1 i.p. or p.o. with vincristine 0.5 mg kg-1 i.p., P < 0.01): significantly potentiated the anti-tumour activity
- tolerability of combination schedules ([9]; XR9051 with vincristine or doxorubicin): well-tolerated
- survival, modulator alone ([2]; XR9051 alone by any route, mice bearing sensitive or resistant tumours): no effect on survival
- lifespan of resistant tumour-bearing animals ([2]; XR9051 i.p. 5, 10 and 20 mg kg-1 with vincristine 0.1 mg kg-1 i.p., dose-dependent (data not shown)): increase in lifespan
- survival of resistant leukaemia-bearing mice, combination vs cytotoxic drug alone ([2]; XR9051 i.v. 10, 20 or 40 mg kg-1 1 h before vincristine 0.1 mg kg-1 i.p.): significantly increased survival
- survival of resistant leukaemia-bearing mice, combination vs cytotoxic drug alone ([2]; XR9051 p.o. 60, 80 or 120 mg kg-1 1 h before vincristine 0.1 mg kg-1 i.p.): significantly increased survival
- toxicity of combination therapy as assessed by body weight loss ([2]; XR9051 with vincristine or doxorubicin (data not shown)): no significant increase in toxicity
- oral potency relative to i.v. administration ([2]; xenograft and murine tumour models): two- to three-fold less
- concentration that fully reverses resistance to a range of cytotoxic drugs in vitro [10]: 300 to 500 nM

Compound: COc1cccc2c1C(=O)c1c(O)c3c(c(O)c1C2=O)C[C@@](O)(C(=O)CO)C[C@@H]3O[C@H]1C[C@H](N)[C@H](O)[C@H](C)O1 [doxorubicin, reference compound]
- lifespan of tumour-bearing animals vs vehicle alone [1]: increased the lifespan
- survival, cytotoxic drug in the absence of XR9051 [2]: little or no effect on survival
